ChEMBL document CHEMBL1201862, “PubChem BioAssay data set” (2004)
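In this assay, cells in 96-well plates receive the compound at five concentrations for 48 hours. Endpoints are linearly interpolated between the surrounding concentrations. At the GI50, growth is halved.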 Activity calls are given as the source filed them. Rule as the data show it: active = GI50 up to about 1.1 µM and inactive = higher.

How the values were obtained:
Assay in all cases: DTP human tumour cell line panel, 48 h
A549 = tested on: A549
EKVX = tested on: EKVX
HCC 2998 = tested on: HCC 2998
HCT-116 = tested on: HCT-116
HL-60 = tested on: HL-60
HOP-62 = tested on: HOP-62
IGROV-1 = tested on: IGROV-1
M14 = tested on: M14
MDA-MB-231 = tested on: MDA-MB-231
MOLT-4 = tested on: MOLT-4
NCI-H226 = tested on: NCI-H226
NCI-H522 = tested on: NCI-H522
OVCAR-3 = tested on: OVCAR-3
PC-3 = tested on: PC-3
RPMI-8226 = tested on: RPMI-8226
SK-MEL-5 = tested on: SK-MEL-5
SN12C = tested on: SN12C
T47D = tested on: T47D
Hs-578T = tested on: Hs-578T

Compound	GI50 (A549)	GI50 (EKVX)	GI50 (HCC 2998)	GI50 (HCT-116)	GI50 (HL-60)	GI50 (HOP-62)	GI50 (IGROV-1)	GI50 (M14)	GI50 (MDA-MB-231)	GI50 (MOLT-4)	GI50 (NCI-H226)	GI50 (NCI-H522)	GI50 (OVCAR-3)	GI50 (PC-3)	GI50 (RPMI-8226)	GI50 (SK-MEL-5)	GI50 (SN12C)	GI50 (T47D)	GI50 (Hs-578T)
CSC1=C(C(=O)N(COCC[Si](C)(C)C)c2ccccc2Br)CCC(C(C)(C)C)C1 (configuration not stated)	17 µM (inactive)	13.8 µM (inactive)	13.4 µM (inactive)	5.32 µM (inactive)	3.24 µM (inactive)	18.1 µM (inactive)	23.2 µM (inactive)	13.1 µM (inactive)	10.3 µM (inactive)	5.87 µM (inactive)	13.9 µM (inactive)	7.78 µM (inactive)	10.7 µM (inactive)	12.4 µM (inactive)	10.6 µM (inactive)	12.8 µM (inactive)	14.1 µM (inactive)	6.81 µM (inactive)	
CCOC(=O)c1c(C)n(Cc2ccc(Cl)cc2Cl)c2c1cc(O)c1[nH]c3c(c12)CCCC3	52 µM (inactive)	34.6 µM (inactive)	27.3 µM (inactive)	40.7 µM (inactive)	< 0.01 µM (active)	27.5 µM (inactive)	24.9 µM (inactive)	26.7 µM (inactive)	34.2 µM (inactive)	< 0.01 µM (active)	23.6 µM (inactive)	16.1 µM (inactive)	38 µM (inactive)	19.9 µM (inactive)	16.6 µM (inactive)	20.5 µM (inactive)	22.9 µM (inactive)	14.7 µM (inactive)	
COc1cc(COC(=O)NC(Cc2cccs2)C(=O)O)c([N+](=O)[O-])cc1OC (configuration not stated)	> 100 µM (inactive)	> 100 µM (inactive)	> 100 µM (inactive)	> 100 µM (inactive)	> 100 µM (inactive)	> 100 µM (inactive)	> 100 µM (inactive)	> 100 µM (inactive)		> 100 µM (inactive)	> 100 µM (inactive)		> 100 µM (inactive)	> 100 µM (inactive)	> 100 µM (inactive)	> 100 µM (inactive)	> 100 µM (inactive)	> 100 µM (inactive)	> 100 µM (inactive)
Cc1ccc(/N=N/c2c(O)c(C(=O)Nc3ccccc3)cc3ccccc23)c([N+](=O)[O-])c1	> 100 µM (inactive)	> 100 µM (inactive)		> 100 µM (inactive)		> 100 µM (inactive)	> 100 µM (inactive)	> 100 µM (inactive)	> 100 µM (inactive)	> 100 µM (inactive)		> 100 µM (inactive)	> 100 µM (inactive)	> 100 µM (inactive)	> 100 µM (inactive)	> 100 µM (inactive)	> 100 µM (inactive)	> 100 µM (inactive)	> 100 µM (inactive)
Cc1cc2nc3c(C#N)c4c(c(Cl)n3c2cc1C)CCC4		61.1 µM (inactive)		16.1 µM (inactive)		> 100 µM (inactive)			15.9 µM (inactive)	26 µM (inactive)	74.1 µM (inactive)	17.4 µM (inactive)	21.3 µM (inactive)		16 µM (inactive)	21.9 µM (inactive)	18.6 µM (inactive)	40.7 µM (inactive)	
COc1ccc(NC(S)=Nc2ccccc2)cc1	> 100 µM (inactive)	96.4 µM (inactive)	> 100 µM (inactive)	> 100 µM (inactive)	24.2 µM (inactive)	> 100 µM (inactive)	> 100 µM (inactive)	> 100 µM (inactive)	> 100 µM (inactive)		> 100 µM (inactive)	> 100 µM (inactive)	> 100 µM (inactive)	> 100 µM (inactive)	> 100 µM (inactive)	> 100 µM (inactive)	> 100 µM (inactive)		> 100 µM (inactive)
CC1=Nc2nc3ccccc3n2C(C)(C)C1	> 100 µM (inactive)	> 100 µM (inactive)		> 100 µM (inactive)		> 100 µM (inactive)	> 100 µM (inactive)	> 100 µM (inactive)	> 100 µM (inactive)	> 100 µM (inactive)	> 100 µM (inactive)	> 100 µM (inactive)	> 100 µM (inactive)	> 100 µM (inactive)	> 100 µM (inactive)	> 100 µM (inactive)		> 100 µM (inactive)	> 100 µM (inactive)
CC(=O)OC1CC2c3cccc4c3C(CC2N(C)C1=O)CN4C(=O)c1ccccc1 (configuration not stated)	17.5 µM (inactive)	22.1 µM (inactive)	15 µM (inactive)	17 µM (inactive)	15.2 µM (inactive)	23.2 µM (inactive)	14.6 µM (inactive)	22.1 µM (inactive)	12.6 µM (inactive)	20.9 µM (inactive)	20.7 µM (inactive)	4.24 µM (inactive)	13.8 µM (inactive)	20.2 µM (inactive)	26.6 µM (inactive)	14.4 µM (inactive)	18.8 µM (inactive)	18.1 µM (inactive)	
